Our source for the MIC, Ratio and inhibition zone (IZ) values is ChEMBL document CHEMBL4393657, “Tetrazole hybrids and their antifungal activities” (2019).

What all share (format): functional
One assay concerns Candida parapsilosis. In words: Antifungal activity against Candida parapsilosis ATCC 22019 assessed as reduction in fungal cell growth incubated for 48 hrs by broth microdilution method. As to conditions: Lodderomyces parapsilosis, ATCC 22019, 48 h. (In broth dilution the organism is exposed to a series of concentrations in liquid medium.)
For assay [1], the system named is Aspergillus niger. The experiment in a line: Antifungal activity against Aspergillus niger assessed as reduction in fungal cell growth incubated for 72 hrs by broth microdilution method.
The next assay has as its system Pichia kudriavzevii. In words: Antifungal activity against Candida krusei assessed as reduction in fungal cell growth incubated for 48 hrs by broth microdilution method.
Assay [2] deals with Nakaseomyces glabratus. The experiment in a line: Antifungal activity against Candida glabrata assessed as reduction in fungal cell growth incubated for 48 hrs by broth microdilution method.
Assay [3] concerns Candida tropicalis. In words: Antifungal activity against Candida tropicalis assessed as reduction in fungal cell growth incubated for 48 hrs by broth microdilution method.
The subject of another assay is Cryptococcus neoformans. The experiment in a line: Antifungal activity against Cryptococcus neoformans LA314 assessed as reduction in fungal cell growth incubated for 48 hrs by broth microdilution method. As to conditions: LA314, 48 h.
In assay [4] the test system is Candida albicans. In words: Antifungal activity against Candida albicans V-01-191A-261 assessed as reduction in fungal cell growth incubated for 48 hrs by broth microdilution method. The following applies: V-01-191A-261, 48 h.
Assay [5] has as its system Nakaseomyces glabratus. The experiment in a line: Antifungal activity against Candida glabrata NCIM 3236 assessed as reduction in fungal cell growth incubated for 24 hrs by broth microdilution method. As to conditions: NCIM 3236, 24 h.
For assay [6], the system named is Candida tropicalis. In words: Antifungal activity against Candida tropicalis NCIM 3110 assessed as reduction in fungal cell growth incubated for 48 hrs by broth microdilution method. As to conditions: NCIM 3110, 48 h.
The subject of assay [7] is Nakaseomyces glabratus. In words: Potency index, ratio for MIC of fluconazole to MIC of compound for antifungal activity against Candida glabrata NCIM 3236 assessed as reduction in fungal cell growth incubated for 24 hrs by broth microdilution method.
For assay [8], the system named is Candida albicans. In words: Antifungal activity against Candida albicans MTCC 227 assessed as reduction in fungal cell growth incubated for 24 hrs by broth microdilution method. As to conditions: MTCC 227, 24 h.
Assay [9] has as its system Candida tropicalis. The experiment in a line: Potency index, ratio for MIC of fluconazole to MIC of compound for Antifungal activity against Candida tropicalis NCIM 3110 assessed as reduction in fungal cell growth incubated for 24 hrs by broth microdilution method.
Assay [10] relates to Candida tropicalis. The experiment in a line: Antifungal activity against Candida tropicalis by broth microdilution method.
For assay [11], the system named is Nakaseomyces glabratus. The experiment in a line: Antifungal activity against Candida glabrata ATCC 36583 by broth microdilution method.
The test system of assay [12] is Candida albicans. In words: Antifungal activity against Candida albicans.
The subject of the next assay is Rhizopus arrhizus. The experiment in a line: Antifungal activity against Rhizopus arrhizus.
The test system of assay [13] is Aspergillus flavus. In words: Antifungal activity against Aspergillus flavus.
Assay [14] deals with Aspergillus niger. In words: Antifungal activity against Aspergillus niger.
In another assay the test system is Mucor indicus. The experiment in a line: Antifungal activity against Mucor indicus.
Assay [15] concerns Candida albicans. The experiment in a line: Antifungal activity against Candida albicans MTCC 227 assessed as reduction in fungal cell growth incubated for 24 and 48 hrs by broth microdilution method.
Assay [16] has as its system Candida albicans. The experiment in a line: Antifungal activity against Candida albicans assessed as reduction in fungal cell growth incubated for 24 and 72 hrs by cup plate method.
Assay [17] concerns Aspergillus flavus. The experiment in a line: Antifungal activity against Aspergillus flavus assessed as reduction in fungal cell growth incubated for 24 and 72 hrs by cup plate method.
The test system of assay [18] is Candida albicans. In words: Antifungal activity against Candida albicans assessed as reduction in fungal cell growth incubated for 48 hrs by broth microdilution method.
Assay [19] concerns Aspergillus niger. In words: Antifungal activity against Aspergillus niger assessed as reduction in fungal cell growth incubated for 48 hrs by broth microdilution method.
In assay [20] the test system is Aspergillus flavus. The experiment in a line: Antifungal activity against Aspergillus flavus NCIM 524 assessed as reduction in fungal cell growth incubated for 3 to 4 days by disk diffusion method. (In general: In agar diffusion tests the substance spreads into inoculated agar from a disc or well.)
A further assay concerns Talaromyces marneffei. The experiment in a line: Antifungal activity against Penicillium marneffei assessed as reduction in fungal cell growth incubated for 3 to 4 days by disk diffusion method.
The test system of assay [21] is Trichophyton mentagrophytes. The experiment in a line: Antifungal activity against Trichophyton mentagrophytes assessed as reduction in fungal cell growth incubated for 3 to 4 days by disk diffusion method.
Assay [22] deals with Aspergillus fumigatus. In words: Antifungal activity against Aspergillus fumigatus NCIM 902 assessed as reduction in fungal cell growth incubated for 3 to 4 days by disk diffusion method.
Assay [23] concerns Candida albicans. The experiment in a line: Antifungal activity against Candida albicans ATCC 885653 assessed as inhibition zone at 100 ug/ml incubated for 48 to 72 hrs by agar-diffusion method.
Assay [24] has as its system Aspergillus fumigatus. The experiment in a line: Antifungal activity against Aspergillus fumigatus assessed as inhibition zone at 1 ug/ml incubated for 24 to 72 hrs by disk diffusion method.
Assay [25] has as its system Aspergillus flavus. In words: Antifungal activity against Aspergillus flavus assessed as inhibition zone at 1 ug/ml incubated for 24 to 72 hrs by disk diffusion method.
A further assay concerns Trichoderma harzianum. The experiment in a line: Antifungal activity against Trichoderma harzianum assessed as inhibition zone at 1 ug/ml incubated for 24 to 72 hrs by disk diffusion method.
In assay [26] the test system is Aspergillus niger. In words: Antifungal activity against Aspergillus niger assessed as inhibition zone at 1 ug/ml incubated for 24 to 72 hrs by disk diffusion method.
Assay [27] relates to Candida albicans. The experiment in a line: Antifungal activity against Candida albicans MTCC183 assessed as reduction in fungal cell growth incubated for 24 to 48 hrs.
Assay [28] relates to Aspergillus niger. In words: Antifungal activity against Aspergillus niger MTCC281 assessed as reduction in fungal cell growth incubated for 24 to 48 hrs.

≈ marks a conversion by molar mass, not a printed value.

In general, MIC refers to the smallest concentration in the dilution series that meets the test's criterion for growth inhibition. `C[C@@H](c1ncncc1F)[C@](O)(Cn1cncn1)c1ccc(F)cc1F` [VORICONAZOLE]: the MIC in the assay with Candida parapsilosis, in the assay on Aspergillus niger [1], with Pichia kudriavzevii, with Nakaseomyces glabratus [2], with Candida tropicalis [3] and in the assay on Cryptococcus neoformans was 0.015 to 0.5 µg/mL (≈ 0.0429 to 1.43 µM) in each case. For the same molecule, in the assay with Candida albicans [4], the MIC lay in the range of 0.015 to 0.5 µg/mL (≈ 0.0429 to 1.43 µM).

With `Cc1cc2oc(-c3ccc(F)cc3)c(OCc3nnn[nH]3)c(=O)c2cc1Cl`, the values for the MIC with Nakaseomyces glabratus [5], with Candida tropicalis [6] and in the assay with Candida albicans [8] were 12.5 to 50 µg/mL (≈ 32.3 to 129 µM), 12.5 to 50 µg/mL (≈ 32.3 to 129 µM) and 12.5 to 25 µg/mL (≈ 32.3 to 64.6 µM), respectively. The Ratio in the assay on Nakaseomyces glabratus [7] and in the assay on Candida tropicalis [9] was 16 - 64 in each case.

Take `O=c1c(OCc2nnn[nH]2)c(-c2ccc(F)cc2)oc2c(Cl)cc(Cl)cc12`: the MIC with Nakaseomyces glabratus [5], with Candida tropicalis [6] and with Candida albicans [8] was 12.5 to 50 µg/mL (≈ 30.7 to 123 µM) throughout. Besides, the Ratio in the assay on Nakaseomyces glabratus [7] and in the assay on Candida tropicalis [9] was 8 - 64 each time.

`Cn1c(-c2ccc(NC(=O)CSc3nnnn3-c3ccccc3)cc2)nc2cc(Cl)c(Cl)cc21`: the MIC against Candida tropicalis [10], against Nakaseomyces glabratus [11] and in the assay with Candida albicans [12] was 25 to 50 µg/mL (≈ 49 to 98 µM) in each case.

Turning to `Cc1ccc(-n2nnnc2C(=O)CN2CCN(c3nc4c(cc3F)c(=O)c(C(=O)O)cn4C3CC3)CC2)cc1`, the MIC against Rhizopus arrhizus, in the assay on Aspergillus flavus [13], in the assay on Candida albicans [12], in the assay with Aspergillus niger [14] and with Mucor indicus was 6.25 to 100 µg/mL (≈ 11.7 to 188 µM) each time.

As for `O=c1c(OCc2nnn[nH]2)c(-c2ccc(F)cc2)oc2ccccc12`, the MIC with Nakaseomyces glabratus [5] is 12.5 to 50 µg/mL (≈ 36.9 to 148 µM); with Candida tropicalis [6] it was 12.5 to 50 µg/mL (≈ 36.9 to 148 µM); with Candida albicans [8], 12.5 to 25 µg/mL (≈ 36.9 to 73.9 µM). The Ratio in the assay with Nakaseomyces glabratus [7] and in the assay with Candida tropicalis [9] was 16 - 64 each time.

For the molecule `COC1=CC(=O)C[C@@H](C)[C@]12Oc1c(Cl)c(OC)cc(OC)c1C2=O` [GRISEOFULVIN], the MIC in the assay with Candida albicans [15] is 500 µg/mL (≈ 1420 µM); in the assay with Candida albicans [16] it was 10 µg/mL (≈ 28.3 µM); with Aspergillus flavus [17], 10 µg/mL (≈ 28.3 µM).

`S=c1[nH]c2c(c3nnnn13)C(c1ccccc1)c1ccc3ccccc3c1O2` (stereo not given): the MIC in the assay on Candida albicans [18] and with Aspergillus niger [19] was 50 to 400 µg/mL (≈ 130 to 1040 µM) throughout.

Turning to `c1ccc(-n2nnnc2SCCCSc2nnnn2C2CC2)cc1`, the MIC (in the assay on Aspergillus flavus [20]; with Talaromyces marneffei; in assay [21]; in the assay with Aspergillus fumigatus [22]) was 6.25 to 50 µg/mL (≈ 17.3 to 139 µM) each time.

Turning to NYSTATIN, the inhibition zone (IZ) with Candida albicans [23] was 21 mm; in the assay with Aspergillus fumigatus [24] it was 2.4 to 2.8 mm; in the assay with Aspergillus flavus [25], 2.4 to 2.8 mm; in the assay with Trichoderma harzianum, 2.4 to 2.8 mm; in the assay with Aspergillus niger [26], 2.4 to 2.8 mm. The MIC with Candida albicans [15] amounted to 100 µg/mL.

As to `CC[C@@H]([C@H](C)O)n1ncn(-c2ccc(N3CCN(c4ccc(OC[C@@H]5CO[C@@](Cn6cncn6)(c6ccc(F)cc6F)C5)cc4)CC3)cc2)c1=O` [POSACONAZOLE], the MIC in the assay on Candida parapsilosis, with Aspergillus niger [1], with Pichia kudriavzevii, with Nakaseomyces glabratus [2], with Candida tropicalis [3] and with Cryptococcus neoformans was 0.12 to 1 µg/mL (≈ 0.171 to 1.43 µM) each time. For the same molecule, in the assay on Candida albicans [4], the MIC was 0.12 to 1 µg/mL (≈ 0.171 to 1.43 µM).

For the molecule `O=[N+]([O-])c1cccc(C2c3ccc4ccccc4c3Oc3[nH]c(=S)n4nnnc4c32)c1` (stereo not given), the MIC in the assay on Candida albicans [18] and in the assay with Aspergillus niger [19] was 50 to 400 µg/mL (≈ 117 to 934 µM) in each case.

`c1cnc(-c2nn3nnnc3o2)cn1`: the MIC in the assay with Candida albicans [27] is 50 µg/mL (≈ 264 µM); in the assay with Aspergillus niger [28] it was 100 µg/mL (≈ 529 µM).

Turning to `Fc1ccc(C2c3ccc4ccccc4c3Oc3[nH]c(=S)n4nnnc4c32)cc1` (stereo not given), the MIC with Candida albicans [18] and in the assay with Aspergillus niger [19] was 50 to 400 µg/mL (≈ 125 to 996 µM) throughout.

Regarding `Cc1ccc(C2c3ccc4ccccc4c3Oc3[nH]c(=S)n4nnnc4c32)cc1` (stereo not given), the MIC in the assay on Candida albicans [18] and in the assay on Aspergillus niger [19] was 50 to 400 µg/mL (≈ 126 to 1010 µM) in each case.
